Literature values, collected in patent EP3952993B1, “METHOD OF TREATING FUMARIC ACID ESTER-RESISTANT PLAQUE PSORIASIS” (Almirall S.A., priority 2019, dated 2020).
Where a name gives a salt, the structure may show the parent alone.

Test system: patients diagnosed with moderate-to-severe psoriasis
Settings: up to 720 mg/daily; 16 weeks; vs Fumaderm and placebo

COC(=O)/C=C/C(=O)OC [DMF, dimethyl fumarate]
co-primary endpoints: PASI 75 and clear/almost clear in the PGA: significantly superior to placebo and non-inferior to FAEs
